Test results as given in ChEMBL document CHEMBL4152362, “Discovery of DS-6930, a potent selective PPARγ modulator. Part II: Lead optimization” (Bioorg Med Chem, 2018).
pEC50: −log10 of the molar value. In brackets after ≈: the same amount, converted by molar mass. Activity calls are given as the source filed them. No cut-off for these calls is given here.

Assays:
[1] = Oral bioavailability in cynomolgus monkey at 3 mg/kg by LC-MS/MS; format: ADME, organism-based, Macaca fascicularis; conditions: in vivo
[2] = AUClast in cynomolgus monkey at 3 mg/kg, po by LC-MS/MS; format: ADME, organism-based, Macaca fascicularis; set-up: dose 3 mg/kg, time 0 - last, route oral; conditions: in vivo
[3] = Tmax in Zucker diabetic fatty rat at 3 mg/kg, po dosed once daily for 14 days and followed by additional administration on day 15; format: ADME, organism-based; conditions: in vivo
[4] = Half life in cynomolgus monkey at 3 mg/kg, po by LC-MS/MS; format: ADME, organism-based, Macaca fascicularis; conditions: in vivo
[5] = Tmax in cynomolgus monkey at 3 mg/kg, po by LC-MS/MS; format: ADME, organism-based, Macaca fascicularis; conditions: in vivo
[6] = Clearance in cynomolgus monkey at 1 mg/kg, iv by LC-MS/MS; format: ADME, organism-based, Macaca fascicularis; conditions: in vivo
[7] = Metabolic stability in cynomolgus monkey liver microsomes after 0.5 hrs; format: ADME, Macaca fascicularis, microsome; conditions: read-out: Stability
[8] = Metabolic stability in rat liver microsomes after 0.5 hrs; format: ADME, microsome; conditions: read-out: Stability
[9] = AUC (0 to 24 hrs) in Zucker diabetic fatty rat at 3 mg/kg, po dosed once daily for 14 days and followed by additional administration on day 15; format: ADME, organism-based; set-up: time < 24 hr, dose 3 mg/kg, route oral; conditions: in vivo
[10] = Cmax in cynomolgus monkey at 3 mg/kg, po by LC-MS/MS; format: ADME, organism-based, Macaca fascicularis; set-up: dose 3 mg/kg, route oral; conditions: in vivo
[11] = Volume of distribution at steady state in cynomolgus monkey at 1 mg/kg, iv by LC-MS/MS; format: ADME, organism-based, Macaca fascicularis; conditions: in vivo, read-out: Vdss
[12] = test system: Rattus norvegicus; experiment: Antidiabetic activity in Zucker diabetic fatty rat assessed as reduction in plasma glucose level at 3 mg/kg, po administered once daily for 14 days measured on day 15 relative to control; format: functional; set-up: scale not given: the % may be the effect or the level left
[13] = Cmax in Zucker diabetic fatty rat at 3 mg/kg, po dosed once daily for 14 days and followed by additional administration on day 15; format: ADME, organism-based; set-up: dose 3 mg/kg, route oral; conditions: in vivo
[14] = 1-octanol/PBS distribution co-efficient, log D of the compound at […] at pH 7.4 after 30 mins by HPLC-MS/MS method; format: physicochemical
[15] = biological target: T1, Peroxisome proliferator-activated receptor alpha (Homo sapiens) (UniProt Q07869); experiment: Agonist activity at recombinant human GAL4-DBD fused PPARalpha LBD expressed in COS7 cells at 10 uM after 24 hrs by luciferase reporter gene assay relative to 2-(4-tert-Butylphenoxy)-3-[4-[2-[(4-pyridin-2-ylbenzoyl)amino]ethoxy] phenyl]propionic acid; format: cell-based
T1 sequence (whole entry): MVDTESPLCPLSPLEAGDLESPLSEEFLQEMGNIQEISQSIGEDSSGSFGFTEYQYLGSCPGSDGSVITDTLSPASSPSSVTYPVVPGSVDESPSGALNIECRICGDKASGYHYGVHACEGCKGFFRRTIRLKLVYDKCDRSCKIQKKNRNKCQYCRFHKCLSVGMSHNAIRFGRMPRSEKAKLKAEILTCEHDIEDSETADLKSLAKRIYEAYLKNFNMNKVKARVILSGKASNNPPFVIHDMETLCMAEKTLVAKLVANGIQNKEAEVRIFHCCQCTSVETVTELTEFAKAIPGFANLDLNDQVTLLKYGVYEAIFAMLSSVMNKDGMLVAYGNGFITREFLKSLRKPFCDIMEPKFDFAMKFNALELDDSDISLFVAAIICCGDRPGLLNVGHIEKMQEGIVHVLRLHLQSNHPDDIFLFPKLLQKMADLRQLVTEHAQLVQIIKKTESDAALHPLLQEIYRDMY

[16] = biological target: T2, Peroxisome proliferator-activated receptor delta (Homo sapiens) (UniProt Q03181); experiment: Agonist activity at PPARdelta (unknown origin) at 10 uM
T2 sequence (whole entry): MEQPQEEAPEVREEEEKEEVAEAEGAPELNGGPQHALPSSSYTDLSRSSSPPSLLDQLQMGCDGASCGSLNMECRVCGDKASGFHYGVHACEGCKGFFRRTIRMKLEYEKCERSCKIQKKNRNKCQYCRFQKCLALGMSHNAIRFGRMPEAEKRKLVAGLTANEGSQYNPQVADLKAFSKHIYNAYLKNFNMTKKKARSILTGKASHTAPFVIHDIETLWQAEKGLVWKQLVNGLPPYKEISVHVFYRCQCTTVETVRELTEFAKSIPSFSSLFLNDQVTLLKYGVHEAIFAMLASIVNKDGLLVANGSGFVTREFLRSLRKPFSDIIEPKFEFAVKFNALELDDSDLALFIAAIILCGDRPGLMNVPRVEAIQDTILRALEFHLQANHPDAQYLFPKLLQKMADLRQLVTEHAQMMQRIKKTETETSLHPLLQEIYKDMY

[17] = test system: Rattus norvegicus; experiment: Antidiabetic activity in Zucker diabetic fatty rat assessed as reduction in plasma glucose level administered orally once daily for 21 days measured on day 22; format: functional, organism-based
[18] = test system: Hepatocyte; experiment: Cytotoxicity against F344/DuCrlCrlj rat primary hepatocytes assessed as reduction in mitochondrial enzyme activity at 100 uM after 24 hrs by WST8 assay relative to control; format: cell-based; set-up: scale not given: the % may be the effect or the level left
[19] = biological target: T3, Peroxisome proliferator-activated receptor gamma (Homo sapiens) (UniProt P37231); experiment: Agonist activity at recombinant human GAL4-DBD fused PPARgamma LBD expressed in COS7 cells at 10 uM after 24 hrs by luciferase reporter gene assay relative to rosiglitazone; format: cell-based
T3 sequence (whole entry): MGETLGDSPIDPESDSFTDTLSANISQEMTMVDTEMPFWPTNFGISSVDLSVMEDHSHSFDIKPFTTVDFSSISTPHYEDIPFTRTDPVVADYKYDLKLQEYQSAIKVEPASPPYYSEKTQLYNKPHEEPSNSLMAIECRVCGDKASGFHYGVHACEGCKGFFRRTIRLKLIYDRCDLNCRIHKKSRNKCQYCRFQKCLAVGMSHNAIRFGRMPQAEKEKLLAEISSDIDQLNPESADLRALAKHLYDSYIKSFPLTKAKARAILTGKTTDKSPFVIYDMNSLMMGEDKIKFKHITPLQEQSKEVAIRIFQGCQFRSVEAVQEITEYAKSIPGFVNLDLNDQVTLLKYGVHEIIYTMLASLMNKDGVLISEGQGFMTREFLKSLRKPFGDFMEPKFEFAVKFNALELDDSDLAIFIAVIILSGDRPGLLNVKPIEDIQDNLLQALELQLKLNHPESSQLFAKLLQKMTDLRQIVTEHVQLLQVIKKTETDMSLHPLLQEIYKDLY

[20] = Apparent permeability of the compound after 4 hrs by PAMPA; format: ADME
[21] = Metabolic stability in human liver microsomes after 0.5 hrs; format: ADME, microsome; conditions: read-out: Stability
[22] = biological target: T4, Peroxisome proliferator-activated receptor alpha (Homo sapiens, UniProt Q07869); experiment: Agonist activity at recombinant human GAL4-DBD fused PPARalpha LBD expressed in COS7 cells after 24 hrs by luciferase reporter gene assay; format: cell-based
T4 sequence (Q07869 whole entry): T1 sequence (whole entry)

[23] = test system: Hepatocyte; experiment: Cytotoxicity against F344/DuCrlCrlj rat primary hepatocytes assessed as reduction in mitochondrial enzyme activity at 10 to 100 uM after 24 hrs by WST8 assay; format: cell-based
[24] = biological target: T5, Peroxisome proliferator-activated receptor gamma (Homo sapiens, UniProt P37231); experiment: Agonist activity at recombinant human GAL4-DBD fused PPARgamma LBD expressed in COS7 cells after 24 hrs by luciferase reporter gene assay; format: cell-based
T5 sequence (P37231 whole entry): T3 sequence (whole entry)

[25] = test system: Hepatocyte; experiment: Cytotoxicity against F344/DuCrlCrlj rat primary hepatocytes assessed as reduction in cell viability at 10 to 100 uM after 24 hrs by LDH release assay; format: cell-based
[26] = test system: Rattus norvegicus; experiment: Toxicity in Zucker diabetic fatty rat assessed as body weight gain at 3 mg/kg, po administered once daily for 14 days relative to control; format: organism-based; conditions: in vivo, 336 h
[27] = Aqueous thermodynamic solubility of the compound in pH 6.8 solution up to 4 hrs by HPLC-UV analysis; format: physicochemical; conditions: read-out: Therm_solubility
[28] = test system: Rattus norvegicus; experiment: Antidiabetic activity in Zucker diabetic fatty rat assessed as reduction in plasma glucose level at 0.3 mg/kg, po administered once daily for 21 days measured on day 22 relative to control; format: functional; set-up: scale not given: the % may be the effect or the level left
[29] = Cmax in Zucker diabetic fatty rat at 0.3 mg/kg, po administered once daily for 21 days followed by additional administration on day 22; format: ADME, organism-based; set-up: dose 0.3 mg/kg, route oral; conditions: in vivo
[30] = Tmax in Zucker diabetic fatty rat at 0.3 mg/kg, po administered once daily for 21 days followed by additional administration on day 22; format: ADME, organism-based; conditions: in vivo
[31] = AUC (0 to 24 hrs) in Zucker diabetic fatty rat at 0.3 mg/kg, po administered once daily for 21 days followed by additional administration on day 22; format: ADME, organism-based; set-up: dose 0.3 mg/kg, time < 24 hr, route oral; conditions: in vivo

| Structure (SMILES) | bioavailability [1] [%] | AUC(0-t) [2] [ng·h/mL] | Tmax [3] [h] | half-life [4] [h] | Tmax [5] [h] | clearance [6] [mL/min/kg] | remaining at 0.5 h [7] [%] | remaining at 0.5 h [8] [%] | AUC at 24 h [9] [ng·h/mL] | Cmax [10] [ng/mL] | Vd [11] [L/kg] | Activity [12] [%] | Cmax [13] [ng/mL] | logD at 0.5 h [14] | Emax [15] [%] | Activity [16] | Emax [19] [%] | Papp at 4 h [20] [×10⁻⁶ cm/s] | remaining at 0.5 h [21] [%] | pEC50 [22] | also measured |
| --- | --- | --- | --- | --- | --- | --- | --- | --- | --- | --- | --- | --- | --- | --- | --- | --- | --- | --- | --- | --- | --- |
| Cc1cnc(Oc2ccc3nc(COc4cccc(C(=O)O)c4)n(C)c3c2)c(C)c1 [listing 1 of 2 here] | 89 | 23500 | 3.2 | 13.5 | 5 | 2.06 | 80 | 92 | 2490 | 2250 | 0.36 | 57 | 180 | 1.4 |  |  |  |  |  |  |  |
| Cc1cnc(Oc2ccc3nc(COc4cccc(C(=O)O)c4)n(C)c3c2)c(C)c1 [listing 2 of 2 here] |  |  |  |  |  |  |  |  |  |  |  |  |  |  | 13 | inactive |  |  |  |  | Activity [17]: Dose-dependent effect |
| Cn1c(COc2cccc(C(=O)O)c2)nc2ccc(Oc3ccc(Cl)c(F)c3)cc21 | 25 | 40200 |  | 18.3 | 1.67 | 0.32 | 100 |  |  | 4440 | 0.2 |  |  | 2.7 | 32 |  | 82 | 38.5 | 100 | < 5.00 | Activity [18]: 19%; Activity [23]: Dose-dependent effect; pEC50 [24]: 7.17 |
| Cn1c(COc2cccc(C(=O)O)c2)nc2ccc(Oc3ncc(Cl)cc3F)cc21 | 31 | 9940 | 2 | 8.84 | 3.25 | 1.66 | 91 | 87 | 3910 | 1190 | 0.5 | 70.6 | 450 | 1.3 | 5 |  | 79 | 11.8 | 90 | < 5.00 | Activity [25]: Non-Toxic; Activity [26]: 13.8%; Activity [23]: Non-Toxic; solubility thermodynamic at 4 h [27]: 10 µg/mL (≈ 23.4 µM) |
| Cn1c(COc2cccc(C(=O)O)c2)nc2ccc(Oc3ccc4c(c3)CCC4)nc21 |  |  | 2 |  |  |  |  | 71 | 4080 |  |  | 70.4 | 600 | 2.5 | 23 | inactive | 79 | 31.5 | 76 | < 5.00 | Activity [26]: 14%; solubility thermodynamic at 4 h [27]: 4.3 µg/mL (≈ 10.4 µM); pEC50 [24]: 7.60 |
| Cn1c(COc2cccc(C(=O)O)c2)nc2ccc(Oc3ccc4c(c3)OCC4)nc21 | 27 | 4910 | 2 | 13.3 | 1.5 | 2.73 | 88 | 89 | 3390 | 460 | 1.97 | 55.3 | 630 | 1.4 | 20 | inactive | 89 | 9.1 | 92 | < 5.00 | Activity [25]: Non-Toxic; Activity [26]: 7.1%; Activity [23]: Non-Toxic; solubility thermodynamic at 4 h [27]: 17 µg/mL (≈ 40.7 µM); pEC50 [24]: 7.03 |
| Cc1cnc(Oc2ccc3nc(COc4cccc(C(=O)[O-])c4)n(C)c3c2)c(C)c1.Cc1cnc(Oc2ccc3nc(COc4cccc(C(=O)[O-])c4)n(C)c3c2)c(C)c1.[Ca+2] |  |  |  |  |  |  |  |  |  |  |  |  |  |  |  |  |  |  |  |  | Activity [28]: 47%; Cmax [29]: 79.2 ng/mL; Tmax [30]: 1.8 h; AUC at 24 h [31]: 861 ng·h/mL |
